Earlier results, collected in PMC11357446, “Searching for Novel HDAC6/Hsp90 Dual Inhibitors with Anti-Prostate Cancer Activity: In Silico Screening and In Vitro Evaluation” (Pharmaceuticals, 2024).

Key:
Hsp90 = Hsp90 (UniProt ID: P07900); set-up: method as in ChEMBL [62]; settings: ChEMBL record on recombinant protein; ref ChEMBL [62]; read-out: Hsp90 IC50 (Standard Value); cited from earlier work
HDAC6 = HDAC6 (UniProt ID: Q9UBN7); set-up: method as in ChEMBL [62]; settings: ChEMBL record on recombinant protein; ref ChEMBL [62]; read-out: HDAC6 IC50 (Standard Value); cited from earlier work

Row | SMILES | IC50 (Hsp90) [nM] | IC50 (HDAC6) [nM]
1 | CC(C)c1cc(-c2onc(C(=O)N[C@@H](C(=O)N3CC(F)(F)C3)C(C)C)c2-c2ccc(CN3CCOCC3)cc2)c(O)cc1O [CHEMBL4096929] | 39 | –
2 | CC(C)c1cc(C(=O)N2Cc3ccc(NCc4ccc(C(=O)NO)cc4)cc3C2)c(O)cc1O [CHEMBL4782478] | 66 | 33.3
